Assay results from the supplement of paper PMC10307832.

How the values were obtained:
Experiment in all cases: relative viability (nuclei count vs DMSO), 5 days (fraction); higher = more cells survive
[1] = test system: A-427
In short: (§1)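 Five library-drug doses in √10 steps were combined with a fixed anchor-drug dose, or a single drug was given alone, by pin tool to lung cancer cell lines in 1536-well plates the day after seeding. Nuclei were stained and counted after 5 days. Relative viability is the nuclei count in treated wells over that in vehicle wells, taken as the median of duplicate plates.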

[2] = test system: CAL-12T
In short: as §1

[3] = test system: COR-L 105
In short: as §1

[4] = test system: EMC-BAC-2
In short: as §1

[5] = test system: HARA
In short: as §1

[6] = test system: HCC-366
In short: as §1

[7] = test system: HCC-827
In short: as §1

[8] = test system: HOP-62
In short: as §1

[9] = test system: LCLC-103H
In short: as §1

[10] = test system: NCI-H1355
In short: as §1

[11] = test system: NCI-H1395
In short: as §1

[12] = test system: NCI-H1437
In short: as §1

[13] = test system: NCI-H1755
In short: as §1

[14] = test system: NCI-H1792
In short: as §1

[15] = test system: NCI-H1915
In short: as §1

[16] = test system: NCI-H1975
In short: as §1

[17] = test system: NCI-H2009
In short: as §1

[18] = test system: NCI-H2228
In short: as §1

[19] = test system: NCI-H23
In short: as §1

[20] = test system: NCI-H460
In short: as §1

[21] = test system: NCI-H727
In short: as §1

[22] = test system: SK-LU-1
In short: as §1

[23] = test system: SW 1573
In short: as §1

Which results are given for `CC(C)Oc1cc(Nc2nc(N[C@@H](C)c3ccc(F)cn3)ncc2Cl)n[nH]1` [AZ23] + CS(=O)(=O)N1CCN(Cc2cc3nc(-c4cccc5[nH]ncc45)nc(N4CCOCC4)c3s2)CC1 [Pictilisib] (partner 1 µM)?
relative viability ([1]; first compound 0.01 µM): 0.819; relative viability ([1]; first compound 0.03162 µM): 0.716; relative viability ([1]; first compound 0.3162 µM): 0.62; relative viability ([2]; first compound 0.03162 µM): 0.418; relative viability ([2]; first compound 0.3162 µM): 0.406; relative viability ([3]; first compound 0.01 µM): 0.407; relative viability ([3]; first compound 0.03162 µM): 0.417; relative viability ([3]; first compound 0.3162 µM): 0.383; relative viability ([4]; first compound 0.01 µM): 0.535; relative viability ([4]; first compound 0.03162 µM): 0.576; relative viability ([4]; first compound 0.3162 µM): 0.51; relative viability ([5]; first compound 0.01 µM): 0.421; relative viability ([5]; first compound 0.03162 µM): 0.373; relative viability ([5]; first compound 0.3162 µM): 0.282; relative viability ([6]; first compound 0.01 µM): 0.14; relative viability ([6]; first compound 0.03162 µM): 0.145; relative viability ([6]; first compound 0.3162 µM): 0.147; relative viability ([7]; first compound 0.01 µM): 1.11; relative viability ([7]; first compound 0.03162 µM): 0.978; relative viability ([7]; first compound 0.3162 µM): 1.11; relative viability ([8]; first compound 0.01 µM): 0.635; relative viability ([8]; first compound 0.03162 µM): 1.11; relative viability ([8]; first compound 0.3162 µM): 0.874; relative viability ([9]; first compound 0.01 µM): 0.571; relative viability ([9]; first compound 0.03162 µM): 0.555; relative viability ([9]; first compound 0.3162 µM): 0.533; relative viability ([10]; first compound 0.01 µM): 0.367; relative viability ([10]; first compound 0.03162 µM): 0.46; relative viability ([10]; first compound 0.3162 µM): 0.401; relative viability ([11]; first compound 0.03162 µM): 0.666; relative viability ([11]; first compound 0.3162 µM): 0.577; relative viability ([12]; first compound 0.01 µM): 0.374; relative viability ([12]; first compound 0.03162 µM): 0.389; relative viability ([12]; first compound 0.3162 µM): 0.46; relative viability ([13]; first compound 0.01 µM): 0.41; relative viability ([13]; first compound 0.03162 µM): 0.478; relative viability ([13]; first compound 0.3162 µM): 0.464; relative viability ([14]; first compound 0.01 µM): 0.248; relative viability ([14]; first compound 0.03162 µM): 0.291; relative viability ([14]; first compound 0.3162 µM): 0.302; relative viability ([15]; first compound 0.01 µM): 0.988; relative viability ([15]; first compound 0.03162 µM): 0.979; relative viability ([15]; first compound 0.3162 µM): 0.945; relative viability ([16]; first compound 0.01 µM): 0.307; relative viability ([16]; first compound 0.03162 µM): 0.327; relative viability ([16]; first compound 0.3162 µM): 0.298; relative viability ([17]; first compound 0.01 µM): 0.943; relative viability ([17]; first compound 0.03162 µM): 0.88; relative viability ([17]; first compound 0.3162 µM): 0.854; relative viability ([18]; first compound 0.01 µM): 0.523; relative viability ([18]; first compound 0.03162 µM): 0.346; relative viability ([18]; first compound 0.3162 µM): 0.394; relative viability ([19]; first compound 0.03162 µM): 0.543; relative viability ([19]; first compound 0.3162 µM): 0.448; relative viability ([20]; first compound 0.01 µM): 0.3; relative viability ([20]; first compound 0.03162 µM): 0.567; relative viability ([20]; first compound 0.3162 µM): 0.348; relative viability ([21]; first compound 0.01 µM): 0.268; relative viability ([21]; first compound 0.03162 µM): 0.422; relative viability ([21]; first compound 0.3162 µM): 0.329; relative viability ([22]; first compound 0.01 µM): 0.408; relative viability ([22]; first compound 0.03162 µM): 0.599; relative viability ([22]; first compound 0.3162 µM): 0.553; relative viability ([23]; first compound 0.01 µM): 0.674; relative viability ([23]; first compound 0.03162 µM): 0.606; relative viability ([23]; first compound 0.3162 µM): 0.455

`CC(C)Oc1cc(Nc2nc(N[C@@H](C)c3ccc(F)cn3)ncc2Cl)n[nH]1` [AZ23] + C[C@]1(O)C[C@@H](c2nc(-c3ccc4ccc(-c5ccccc5)nc4c3)c3c(N)nccn32)C1 [Linsitinib] (partner 1 µM) was tested. Which relative viability ([1]; first compound 0.01 µM) did it give?
The relative viability was 1.24.

What about the relative viability ([1]; first compound 0.03162 µM) of the same molecule?
The relative viability was 1.11.

What about the relative viability ([1]; first compound 0.3162 µM) of the same molecule?
Its relative viability is 1.16.

And the relative viability ([2]; first compound 0.01 µM)?
The relative viability was 0.551.

And the relative viability ([2]; first compound 0.03162 µM)?
The relative viability was 0.724.

And the relative viability ([2]; first compound 0.3162 µM)?
Its relative viability is 0.861.

And the relative viability ([3]; first compound 0.01 µM)?
The relative viability was 0.664.

And the relative viability ([3]; first compound 0.03162 µM)?
The relative viability was 1.14.

What about the relative viability ([3]; first compound 0.3162 µM) of the same molecule?
Its relative viability is 0.808.

And the relative viability ([4]; first compound 0.01 µM)?
Its relative viability is 1.09.

What about the relative viability ([4]; first compound 0.03162 µM) of the same molecule?
Its relative viability is 0.814.

What about the relative viability ([4]; first compound 0.3162 µM) of the same molecule?
The relative viability was 0.884.

What about the relative viability ([5]; first compound 0.01 µM) of the same molecule?
The relative viability was 0.977.

What about the relative viability ([5]; first compound 0.03162 µM) of the same molecule?
Its relative viability is 1.04.

And the relative viability ([5]; first compound 0.3162 µM)?
Its relative viability is 0.854.

What about the relative viability ([6]; first compound 0.01 µM) of the same molecule?
The relative viability was 0.596.

And the relative viability ([6]; first compound 0.03162 µM)?
Its relative viability is 0.902.

What about the relative viability ([6]; first compound 0.3162 µM) of the same molecule?
Its relative viability is 0.56.

What about the relative viability ([7]; first compound 0.01 µM) of the same molecule?
Its relative viability is 1.

What about the relative viability ([7]; first compound 0.03162 µM) of the same molecule?
Its relative viability is 1.04.

And the relative viability ([7]; first compound 0.3162 µM)?
Its relative viability is 0.93.

And the relative viability ([8]; first compound 0.01 µM)?
The relative viability was 1.09.

What about the relative viability ([8]; first compound 0.03162 µM) of the same molecule?
Its relative viability is 0.992.

What about the relative viability ([8]; first compound 0.3162 µM) of the same molecule?
The relative viability was 0.95.

And the relative viability ([9]; first compound 0.01 µM)?
The relative viability was 1.07.

And the relative viability ([9]; first compound 0.03162 µM)?
The relative viability was 1.03.

And the relative viability ([9]; first compound 0.3162 µM)?
The relative viability was 1.15.

What about the relative viability ([10]; first compound 0.01 µM) of the same molecule?
The relative viability was 0.909.

And the relative viability ([10]; first compound 0.03162 µM)?
The relative viability was 0.784.

What about the relative viability ([10]; first compound 0.3162 µM) of the same molecule?
The relative viability was 0.724.

And the relative viability ([11]; first compound 0.03162 µM)?
Its relative viability is 1.09.

And the relative viability ([11]; first compound 0.3162 µM)?
Its relative viability is 0.975.

What about the relative viability ([12]; first compound 0.01 µM) of the same molecule?
Its relative viability is 1.07.

What about the relative viability ([12]; first compound 0.03162 µM) of the same molecule?
The relative viability was 1.18.

What about the relative viability ([12]; first compound 0.3162 µM) of the same molecule?
The relative viability was 1.28.

And the relative viability ([13]; first compound 0.01 µM)?
Its relative viability is 1.13.

What about the relative viability ([13]; first compound 0.03162 µM) of the same molecule?
The relative viability was 1.03.

What about the relative viability ([13]; first compound 0.3162 µM) of the same molecule?
Its relative viability is 1.06.

And the relative viability ([14]; first compound 0.01 µM)?
The relative viability was 0.565.

And the relative viability ([14]; first compound 0.03162 µM)?
Its relative viability is 0.597.

And the relative viability ([14]; first compound 0.3162 µM)?
Its relative viability is 0.61.

What about the relative viability ([15]; first compound 0.01 µM) of the same molecule?
The relative viability was 1.13.

And the relative viability ([15]; first compound 0.03162 µM)?
The relative viability was 1.1.

And the relative viability ([15]; first compound 0.3162 µM)?
The relative viability was 1.09.

And the relative viability ([16]; first compound 0.01 µM)?
Its relative viability is 1.13.

What about the relative viability ([16]; first compound 0.03162 µM) of the same molecule?
The relative viability was 1.06.

And the relative viability ([16]; first compound 0.3162 µM)?
Its relative viability is 0.972.

And the relative viability ([17]; first compound 0.01 µM)?
Its relative viability is 1.17.

And the relative viability ([17]; first compound 0.03162 µM)?
Its relative viability is 1.25.

And the relative viability ([17]; first compound 0.3162 µM)?
Its relative viability is 1.18.

What about the relative viability ([18]; first compound 0.01 µM) of the same molecule?
Its relative viability is 0.828.

And the relative viability ([18]; first compound 0.03162 µM)?
Its relative viability is 0.727.

What about the relative viability ([18]; first compound 0.3162 µM) of the same molecule?
Its relative viability is 0.473.

And the relative viability ([19]; first compound 0.03162 µM)?
Its relative viability is 0.697.

What about the relative viability ([19]; first compound 0.3162 µM) of the same molecule?
Its relative viability is 0.596.

And the relative viability ([20]; first compound 0.01 µM)?
The relative viability was 0.366.

What about the relative viability ([20]; first compound 0.03162 µM) of the same molecule?
The relative viability was 0.933.

What about the relative viability ([20]; first compound 0.3162 µM) of the same molecule?
Its relative viability is 0.851.

What about the relative viability ([21]; first compound 0.01 µM) of the same molecule?
The relative viability was 0.354.

And the relative viability ([21]; first compound 0.03162 µM)?
Its relative viability is 0.281.

What about the relative viability ([21]; first compound 0.3162 µM) of the same molecule?
Its relative viability is 0.277.

What about the relative viability ([22]; first compound 0.01 µM) of the same molecule?
The relative viability was 0.893.

What about the relative viability ([22]; first compound 0.03162 µM) of the same molecule?
The relative viability was 1.16.

What about the relative viability ([22]; first compound 0.3162 µM) of the same molecule?
The relative viability was 0.932.

And the relative viability ([23]; first compound 0.01 µM)?
The relative viability was 0.786.

What about the relative viability ([23]; first compound 0.03162 µM) of the same molecule?
Its relative viability is 0.937.

And the relative viability ([23]; first compound 0.3162 µM)?
Its relative viability is 0.691.
